According to patent US20120016000A1, “METHOD TO ASSAY PHOSPHOLIPID AND TRIGLYCERIDE TRANSFER ACTIVITY OF MICROSOMAL TRIGLYCERIDE TRANSFER PROTEIN” (priority 2010, published 2012):

Key:
[1] = in vivo; cited from earlier work
[2] = guinea pigs; cited from earlier work
[3] = target: T1, purified bovine liver MTP (Bos taurus, UniProt P55156); assay: Fluorescence triglyceride (NBD-TG) transfer activity assay of MTP; format: biochemical; conditions: dose-dependent inhibition, FIG. 5A
T1 construct: purified bovine liver MTP; from tissue; host or cells: bovine liver
T1 sequence (P55156 19-887 limits assumed): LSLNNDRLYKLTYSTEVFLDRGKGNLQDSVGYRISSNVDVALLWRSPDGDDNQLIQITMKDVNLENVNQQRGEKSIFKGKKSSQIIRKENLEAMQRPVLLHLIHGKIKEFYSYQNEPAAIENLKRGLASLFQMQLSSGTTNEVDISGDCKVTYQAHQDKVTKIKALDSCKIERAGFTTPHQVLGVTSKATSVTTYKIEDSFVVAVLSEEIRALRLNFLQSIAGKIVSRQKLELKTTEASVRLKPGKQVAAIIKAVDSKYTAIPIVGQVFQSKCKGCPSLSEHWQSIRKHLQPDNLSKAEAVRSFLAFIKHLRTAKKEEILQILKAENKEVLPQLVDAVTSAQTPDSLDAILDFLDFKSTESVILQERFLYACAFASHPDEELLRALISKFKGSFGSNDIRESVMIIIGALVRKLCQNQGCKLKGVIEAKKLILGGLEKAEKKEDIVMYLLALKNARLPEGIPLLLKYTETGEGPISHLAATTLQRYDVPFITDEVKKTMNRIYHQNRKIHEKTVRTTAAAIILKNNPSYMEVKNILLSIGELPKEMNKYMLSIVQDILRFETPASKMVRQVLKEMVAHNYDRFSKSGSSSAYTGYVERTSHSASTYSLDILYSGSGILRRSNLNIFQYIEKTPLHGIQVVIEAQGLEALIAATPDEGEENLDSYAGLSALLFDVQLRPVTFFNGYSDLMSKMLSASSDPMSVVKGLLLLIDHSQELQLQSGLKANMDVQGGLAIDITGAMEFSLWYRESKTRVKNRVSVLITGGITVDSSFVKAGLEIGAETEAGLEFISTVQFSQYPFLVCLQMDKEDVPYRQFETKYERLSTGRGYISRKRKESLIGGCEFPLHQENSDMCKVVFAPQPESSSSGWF
T1 sequence (P05307 21-510 partner): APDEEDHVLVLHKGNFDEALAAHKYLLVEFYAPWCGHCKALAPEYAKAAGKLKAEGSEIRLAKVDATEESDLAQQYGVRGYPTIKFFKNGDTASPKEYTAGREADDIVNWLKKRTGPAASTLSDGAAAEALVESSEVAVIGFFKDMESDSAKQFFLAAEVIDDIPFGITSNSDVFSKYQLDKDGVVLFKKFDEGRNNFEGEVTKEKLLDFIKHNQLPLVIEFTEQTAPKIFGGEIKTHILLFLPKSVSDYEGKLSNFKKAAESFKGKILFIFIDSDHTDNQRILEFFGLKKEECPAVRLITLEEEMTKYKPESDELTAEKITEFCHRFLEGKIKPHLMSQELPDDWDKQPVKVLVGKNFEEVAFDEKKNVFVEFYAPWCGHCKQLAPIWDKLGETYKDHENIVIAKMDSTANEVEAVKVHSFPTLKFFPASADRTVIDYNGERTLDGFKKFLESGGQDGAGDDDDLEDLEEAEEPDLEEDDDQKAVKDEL
Text: (§1) The present invention is directed to very selective, simple, rapid and sensitive fluorescence assays to measure triglyceride (NBD-TG) and phospholipid (NBD-PE) transfer by MTP. These assays have been modified and developed into a “mix and measure” format kit that is stable, user friendly, and consists of only two components: a master mix and purified MTP. The master mix contains all the ingredients necessary for MTP activity. In this assay, MTP transfers fluorescent lipids from donor to acceptor vesicles. Lipid fluorescence in these vesicles is mostly quenched. Unquenched fluorescence (˜0.05% of total fluorescence) is measured as background. During the transfer of fluorescent lipids by MTP, fluorescence is exposed to aqueous phase and detected by the Fluorimeter. These fluorescence measurements represent the amount being transferred. Inclusion of antagonist during these assays reduces increases in fluorescence and represents inhibition of the transfer activity. […]
(§2) Increasing amounts of DMSO (0-1%) had no significant effect on both triglyceride (FIG. 3A) and phospholipid (FIG. 3B) transfer activities of MTP. […] Evaluation of signal-to-noise ratio of assay across the entire 96-well plate: Fluorescence in the blank (n=48) and MTP (n=48) was used to determine the values of noise and signal, respectively. […]

[4] = target: T1, purified bovine liver MTP; assay: Fluorescence phospholipid (NBD-PE) transfer activity assay of MTP; format: biochemical; conditions: dose-dependent inhibition, FIG. 5B
Text: as §1, §2

COc1cccc(C(=O)Nc2ccc3c(c2)CCN(C(=O)Oc2ccccc2)C3)c1-c1ccc(C(F)(F)F)cc1 [SLx-4090]
plasma lipids [1]: lower plasma lipids

CCOC(=O)C(COC(=O)Cc1ccc(NC(=O)c2ccccc2-c2ccc(C(F)(F)F)cc2)c(C(=O)N(C)C)c1)(C(=O)OCC)c1ccccc1 [JTT-130]
hepatic triglyceride [2]: without increasing hepatic triglyceride | plasma triglyceride and LDL cholesterol [2]: lower plasma triglyceride and LDL cholesterol

O=C(Nc1ccc2c(c1)CCN(Cc1ncn[nH]1)C2)c1ccccc1-c1ccc(C(F)(F)F)cc1 [CP-346086]
IC50 [3]: 0.33 nM | IC50 [4]: 9.4 nM
